# pIC50: −log10 of the molar value.
# Biological target: T1, Phospholipase A2, membrane associated (Homo sapiens, UniProt P14555)
# T1 sequence (P14555 whole entry): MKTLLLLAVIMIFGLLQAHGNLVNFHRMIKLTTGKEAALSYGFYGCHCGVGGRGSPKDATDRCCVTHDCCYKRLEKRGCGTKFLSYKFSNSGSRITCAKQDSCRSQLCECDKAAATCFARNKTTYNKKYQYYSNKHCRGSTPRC
# Test: In Vitro Colorimetric Enzyme Assay
row,Structure (SMILES),pIC50
1,"O=C(O)CC[C@@H](Cc1ccc(OCc2ccccc2)cc1)NC(=O)CCCCCc1ccccc1 [hnpsPLA2-IIa Inhibitor, 2a]",6.18
2,"O=C(O)CC[C@@H](Cc1ccc(OCc2ccccc2)cc1)NC(=O)CCCCCCCc1ccccc1 [hnpsPLA2-IIa Inhibitor, 2c]",5.61
3,"COc1ccccc1CCCCCCC(=O)N[C@@H](CCC(=O)O)Cc1ccc(OCc2ccccc2)cc1 [hnpsPLA2-IIa Inhibitor, 2d]",5.74
4,"O=C(O)CC[C@@H](Cc1ccc(OCc2ccccc2)cc1)NC(=O)CCCCCCc1cccc([N+](=O)[O-])c1 [hnpsPLA2-IIa Inhibitor, 2g]",6.27
5,"O=C(O)CC[C@@H](Cc1ccc(OCC2CCCCC2)cc1)NC(=O)CCCCCCc1ccccc1 [hnpsPLA2-IIa Inhibitor, 2j]",7.17
6,"O=C(O)CC[C@@H](Cc1ccc(OCC2CCCC2)cc1)NC(=O)CCCCCCc1ccccc1 [hnpsPLA2-IIa Inhibitor, 2k]",7.24
7,"O=C(O)CC[C@@H](Cc1ccc(OC/C=C/c2ccccc2)cc1)NC(=O)CCCCCCc1ccccc1 [hnpsPLA2-IIa Inhibitor, 2n]",6.94

# Continued, values first:
row,pIC50,Structure (SMILES)
1,5.39,"CC(=O)Nc1ccccc1CCCCCCC(=O)N[C@@H](CCC(=O)O)Cc1ccc(OCc2ccccc2)cc1 [hnpsPLA2-IIa Inhibitor, 2e]"
2,6.12,"O=C(O)CC[C@@H](Cc1ccc(OCc2ccccc2)cc1)NC(=O)CCCCCCc1cccnc1 [hnpsPLA2-IIa Inhibitor, 2f]"
3,6.67,"O=C(O)CC[C@@H](Cc1ccc(Oc2ccccn2)cc1)NC(=O)CCCCCCc1ccccc1 [hnpsPLA2-IIa Inhibitor, 2h]"
4,6.61,"O=C(O)CC[C@@H](Cc1ccc(Oc2cccnc2)cc1)NC(=O)CCCCCCc1ccccc1 [hnpsPLA2-IIa Inhibitor, 2i]"
5,7.72,"O=C(O)CC[C@@H](Cc1ccc(OCc2cccc3ccccc23)cc1)NC(=O)CCCCCCc1ccccc1 [hnpsPLA2-IIa Inhibitor, 2l]"
6,7.41,"O=C(O)CC[C@@H](Cc1ccc(OCc2ccc3ccccc3c2)cc1)NC(=O)CCCCCCc1ccccc1 [hnpsPLA2-IIa Inhibitor, 2m]"
7,6.77,"CC(C)COc1ccc(C[C@H](CCC(=O)O)NC(=O)CCCCCCc2ccccc2)cc1 [hnpsPLA2-IIa Inhibitor, 2o]"
8,7.07,"CCCCCCCOc1ccc(C[C@H](CCC(=O)O)NC(=O)CCCCCCc2ccccc2)cc1 [hnpsPLA2-IIa Inhibitor, 2p]"
9,5.59,"O=C(O)CC[C@@H](Cc1ccc(O)cc1)NC(=O)CCCCCCc1ccccc1 [hnpsPLA2-IIa Inhibitor, 2q]"

# From BindingDB's records for doi:10.1002/cbic.200390029 (University of Queensland Brisbane, 2003)
